Consider one substance from patent publication US20150094264A1, “USE OF OBESTATIN FOR MUSCLE REGENERATION” (UNIVERSIDADE DE SANTIAGO DE COMPOSTELA, priority 2012, published 2015).

One assay has as its system ERK 1/2. The experiment in a line: Activation of ERK 1/2 [pERK1/2(T202/Y204)] by obestatin in L6E9 myoblasts, immunoblot. The assay is classed as cell-based, rat. The procedure:
(§1) FIG. 1. Activation of regulatory enzymes of mitogenesis and myogenesis by obestatin in L6E9 myoblasts and myotubes. Effect of obestatin on activity of regulatory enzymes of the mitogenic capacity (ERK 1/2), metabolic capacity (Akt and AMPK) and myogenic capacity (Akt and p38). Based on a dose-response study, the saturating dose for the maximum enzymatic activation is established for a concentration of 5 nM. […] Inactivation of AMPK is described in both cell models. The activation profile discovers bimodal characteristics for the action of obestatin: 1.—mitogenic activation in myoblasts; and, 2.—myogenic activation. The immunoblots are representative of 6 independent assays.
The studies were performed based on the use of L6E9 rat myoblasts which were maintained in growth medium (GM) formed by DMEM (Dulbecco's Modified Eagle Medium) supplemented with 10% fetal bovine serum (FBS), 100 U/mL penicillin, and 100 U/mL streptomycin. For the differentiation, the cells were cultured at 80-100% of confluence in GM and it was replaced for differentiation medium (DM) formed by DMEM supplemented with 2% FBS, 100 U/mL penicillin, and 100 U/mL streptomycin during 6 days.
(§2) The tissue or cell samples were directly lysed in RIPA buffer [Tris-HCl (pH 7.2), 50 mM; NaCl, 150 mM; EDTA, 1 mM; NP-40, 1% (v/v); Sodium deoxycholate, 0.25% (w/v); protease inhibitors (Sigma); phosphatise inhibitors (Sigma)]. The lysates were clarified by centrifugation (14,000×g during 15 min at 4° C.) and the protein concentration was quantified using QuantiPro™ BCA assay kit (Sigma). For immunoblot, equal amounts of protein were loaded which were fractionated in SOS-PAGE gels and transferred to nitrocellulose membranes. The immunoreactive bands were detected by chemiluminescence (Pierce ECL Western Blotting Substrate; Thermo Scientific, Ill., USA).
To define the mitogenic and myogenic effect of obestatin, the activation capacity was studied of intracellular targets regulating proliferation (ERK1/2) and/or differentiation (p38 and Akt). […]

The test system of another assay is AMPKa. The assay is described as follows: Dephosphorylation/inactivation of AMPKa [pAMPKa(T172)] by obestatin in L6E9 cells, immunoblot. It counts as cell-based, rat. As to conditions: obestatin 5 nM; L6E9 myoblasts (both cell models). The procedure: as §1, with “assays. […]” for “assays.”
The tissue or cell samples were directly lysed in RIPA buffer [Tris-HCl (pH 7.2), 50 mM; NaCl, 150 mM; EDTA, 1 mM; NP-40, 1% (v/v); Sodium deoxycholate, 0.25% (w/v); protease inhibitors (Sigma); phosphatise inhibitors (Sigma)]. The lysates were clarified by centrifugation (14,000×g during 15 min at 4° C.) and the protein concentration was quantified using QuantiPro™ BCA assay kit (Sigma). […] The immunoreactive bands were detected by chemiluminescence (Pierce ECL Western Blotting Substrate; Thermo Scientific, Ill., USA). […]
(In general: Immunoblotting shows a protein as a band on a membrane.)

For assay [1], the system named is skeletal muscle tissue (gastrocnemius and soleus) in male rats. The assay is described as follows: Chronic administration by osmotic mini-pumps: myogenic markers in gastrocnemius and soleus of rat, immunoblot. The assay is classed as in vivo, Sprague-Dawley rats. As to conditions: 300 nmol/kg body weight/24 h s.c. infusion, 72 h. On the procedure: FIG. 7. Effect of the chronic administration of obestatin on the myogenic markers in the gastrocnemius and soleus of rat (animal model). Effect of the administration during 72 hours of obestatin (300 nmol/kg/24 h; 72 h) by the implantation of mini-pumps on early and later markers of myogenesis in skeletal muscle tissue (gastrocnemius and soleus) in male rats. A: Western-blot analysis. First column: control; second column: treatment with obestatin. B: Protein levels in gastrocnemius. White column: control; grey column: treatment with obestatin. The protein levels are expressed as % of the control obtained from the group of animals with implantation of mini-pumps with saline (n=10 per group; mean±standard error; *, p<0.05). C: Protein levels in soleus. White column: control; grey column: treatment with obestatin. The protein levels are expressed as % of the control obtained from the group of animals with implantation of mini-pumps with saline (n=10 per group; mean±standard error; *, p<0.05).
as §2
Two animal models were used for the in vivo assays: Sprague-Dawley rats and Swiss mice. The Sprague-Dawley (250 g; n=20) rats were maintained in 12 h light-darkness cycled with free access to standard diet and water. The Alzet® mini-pumps (model 1003D) were subcutaneously implanted. The animals were assigned to one of the two experimental groups (n=10/group): 1) control group (mini-pumps with saline); and, 2) obestatin group (mini-pumps implanted containing 300 nmol/kg weight/24 h). These mini-pumps allow a diffusion flow of 1 microL/h. After 72 h, the rats were sacrificed by cervical dislocation under anaesthetic treatment, and soleus and gastrocnemius tissues were extracted for immunoblot analysis.
Based on the short mean life of obestatin in plasma, osmotic mini-pumps were used for the in vivo administration of this peptide. Two groups of male rats were worked with: a group of 10 male rats received the continuous subcutaneous infusion of obestatin during 72 h (300 nmol/kg body weight/24 h); and another group of 10 rats received the equivalent volume of PBS during 72 h. The animals were sacrificed and the gastrocnemius and soleus muscles were removed and processed to analyse the expression of key factors of muscular differentiation by immunoblot. […] The increase in both types of muscle of the family of regulatory factors of different stages in myogenesis show a clear muscle regenerative capacity for obestatin.

Assay [2] relates to damaged tibialis anterior of mouse. The assay is described as follows: Creatine kinase levels in serum of mice with damaged tibialis anterior. It counts as in vivo, Swiss mice. As to conditions: 300 nmol/kg weight local; 96 h. The procedure:
FIG. 12. Analysis of the creatine kinase levels in serum of mice wherein damage was induced in the tibialis anterior muscle and they were treated locally with obestatin or vehicle (PBS) during 96 h. The creatine kinase levels are expressed as IU/L (International units/litre for the three study groups: control without damage, damage control (PBS) and treatment with obestatin (n=10 per group; mean±standard error; *, #, p<0.005).
The mice (30 g; n=50) were maintained in 12 h light-darkness cycled with free access to standard diet and water. To induce the muscle damage, the tibialis anterior muscle (TA) was extracted under anaesthesia and subjected to three cycles of damage due to cold contact applying along the length of the muscle a metal bar cooled in liquid nitrogen. The damaged muscles were treated locally with obestatin injection (300 nmol/kg weight) or the corresponding vehicle (PBS; control) during the times indicated in 24 h intervals. The animals were assigned to one of the five experimental groups (n=10/group): 1) control group (saline); 2) obestatin group 48 h (obestatin 300 nmol/kg weight/24 h); 3) obestatin group 96 h (obestatin 300 nmol/kg weight/24 h); 4) obestatin group 168 h (obestatin 300 nmol/kg weight/24 h); and, obestatin group 240 h (obestatin 300 nmol/kg weight/24 h). […]

Entries after “also recorded” stand apart in the source; their conditions may differ.

Regarding obestatin, the “obestatin concentration at which activation of ERK 1/2 [pERK1/2(T202/Y204)] was observed” value with ERK 1/2 turned out to be 0.1 nM. For the same substance, in the assay on ERK 1/2 (dose-response), the “obestatin concentration at which pERK1/2(T202/Y204) phosphorylation levels reached saturable values” turned out to be 5 nM. The “time post-stimulation of maximum pERK1/2(T202/Y204) levels” value in the assay on ERK 1/2 (obestatin 5 nM) is 10 min. The “effect on AMPKa phosphorylation in T172 [pAMPKa(T172)]” value in the assay on AMPKa is on record as “Inactivation; also recorded: dephosphorylates”. In assay [1] (gastrocnemius and soleus), the “MHC protein levels in relation to control rats” value is recorded as “significantly increased”, the “Myf5 protein levels in relation to control rats” value is listed as “significantly increased”, the “Myf6 protein levels in relation to control rats” value was “significantly increased” and the “MyoD protein levels in relation to control rats” value is “significantly increased”. Besides, in assay [1] (gastrocnemius and soleus), the “Pax-7 protein levels in relation to control rats” value is reported as “significantly increased” and the “myogenin protein levels in relation to control rats” value was “significantly increased”. Besides, the “Six-1 protein levels in relation to control rats” value in assay [1] (gastrocnemius) was “no effect at all”. Moreover, the “Six-1 protein levels in relation to control rats” value in assay [1] (soleus) was “significant increased”. Besides, the “creatine kinase serum levels in relation to muscle damage controls (PBS)” value in assay [2] is reported as “significant reduction”.
